Like-named read-outs stand apart in the source and are kept apart here. Marks after values point to notes of the source that are not given here. Bridge positions count the residues as written; N and C are the ends. Square brackets hold non-standard residues; d marks the D form. Peptide text beside a SMILES is read from it. pGlu = O=C1CC[C@@H](C(=O)O)N1
Experiments:
[1] = test system: mouse adult neural stem cells; test: ATP-assay: proliferation (ATP levels) of neurosphere-derived cells
[2] = test system: NFAT-Luciferace reporter (Ca^2+); conditions: Table 4; for Fold Induction NFAT: vs vehicle; for NFAT Luciferace units: 24 hours after induction
[3] = test system: cAMP activation in mouse adult neural stem cells; test: cAMP detection (HitHunter EFC Cyclic AMP Chemiluminescence Assay); conditions: Table 2; for Fold Induction cAMP: 10 nM, vs vehicle
[4] = test system: Adult neural stem cells; test: Flow cytometry for early neuronal marker Doublecortin; conditions: Table 6; for % Doublecortin-positive cells: 4 days; for Fold Induction (Doublecortin-positive cells): vs EGF/FGF
[5] = Table 2, 10 nM, 4 days, vs vehicle

Row | SMILES | ATP (nM ATP/well) ([1]; Table 4, 10 nM) | NFAT Luciferace units ([2]; 100 nM) [Luciferace units] | ATP (nM ATP/well) ([1]; Table 2, 10 nM, 4 days) | Fold Induction ATP [1, 5] | cAMP (pmol/well) ([3]; 10 nM (cAMP concentration)) | Fold Induction cAMP [3] | % Doublecortin-positive cells ([4]; 100 nM) [%] | Fold Induction (Doublecortin-positive cells) ([4]; 100 nM) [fold] | other results
1 | CC(C)C[C@H](NC(=O)CNC(=O)[C@H](C)NC(=O)[C@H](CC(C)C)NC(=O)[C@H](CCCNC(=N)N)NC(=O)[C@H](Cc1cnc[nH]1)NC(=O)[C@@H](NC(=O)[C@@H](N)C(C)C)[C@@H](C)O)C(=O)N[C@@H](CC(C)C)C(=O)N[C@@H](CO)C(=O)N[C@@H](CCCNC(=N)N)C(=O)N[C@@H](CO)C(=O)NCC(=O)NCC(=O)N[C@H](C(=O)N[C@H](C(=O)N[C@@H](CCCCN)C(=O)N[C@@H](CC(N)=O)C(=O)N[C@@H](CC(N)=O)C(=O)N[C@@H](Cc1ccccc1)C(=O)N[C@H](C(=O)N1CCC[C@H]1C(=O)N[C@H](C(=O)N[C@@H](CC(N)=O)C(=O)N[C@H](C(=O)NCC(=O)N[C@@H](CO)C(=O)N[C@@H](CCCCN)C(=O)N[C@@H](C)C(=O)N[C@@H](Cc1ccccc1)C(N)=O)C(C)C)[C@@H](C)O)C(C)C)C(C)C)C(C)C [CGRP (8-37)] | – | – | – | – | – | – | – | – | Fold Induction ATP ([1]; Table 4, 100 nM, vs vehicle): 1.2** fold; Fold Induction NFAT ([2]; 15 nM): 1.3** fold
2 | CSCC[C@H](NC(=O)[C@H](C)NC(=O)[C@@H]1CCCN1C(=O)[C@H](CC(N)=O)NC(=O)[C@H](CO)NC(=O)[C@H](CC(N)=O)NC(=O)[C@H](C)NC(=O)[C@@H](N)CO)C(=O)N[C@@H](C)C(=O)N1CCC[C@H]1C(=O)N[C@@H](CCCNC(=N)N)C(=O)N[C@@H](CCC(=O)O)C(=O)N[C@@H](CCCNC(=N)N)C(=O)N[C@@H](CCCCN)C(=O)N[C@@H](C)C(=O)NCC(=O)N[C@H]1CSSC[C@@H](C(=O)O)NC(=O)[C@H](CO)NC(=O)[C@H]([C@@H](C)O)NC(=O)[C@H](Cc2ccccc2)NC(=O)[C@H]([C@@H](C)O)NC(=O)[C@H](CCCCN)NC(=O)[C@H](Cc2c[nH]c3ccccc23)NC(=O)[C@H](Cc2ccccc2)NC(=O)[C@H](Cc2ccccc2)NC(=O)[C@H](CC(N)=O)NC(=O)[C@H](CCCCN)NC1=O [Somatostatin-28] | 17.1 ± 1.5 | 3.0 ± 0.4 | – | – | – | – | – | – | Fold Induction ATP ([1]; Table 4, 10 nM, vs vehicle): 1.2* fold; Fold Induction NFAT ([2]; 100 nM): 1.6* fold
3 | CC[C@H](C)[C@H](NC(=O)[C@@H](NC(=O)[C@H](CC(=O)O)NC(=O)[C@H](CCC(N)=O)NC(=O)[C@H](Cc1c[nH]cn1)NC(=O)[C@@H]1CSSC[C@H](N)C(=O)N[C@@H](CO)C(=O)N[C@H]2CSSC[C@H](NC(=O)[C@H](CCC(=O)O)NC(=O)[C@H](CCCCN)NC(=O)[C@H](CC(=O)O)NC(=O)[C@H]([C@@H](C)O)NC(=O)[C@H](CCSC)NC(=O)[C@H](CC(=O)O)NC(=O)[C@H](CCCCN)NC2=O)C(=O)N[C@@H](CC(C)C)C(=O)N[C@@H](CC(N)=O)C(=O)N[C@@H](Cc2ccccc2)C(=O)N1)C(C)C)C(=O)N[C@@H](Cc1c[nH]c2ccccc12)C(=O)O [Sarafotoxin S6a] (H-CSCKDMTDKECLNFCHQDVIW-OH; disulfide 1-15, 3-11; N-terminus and C-terminus assumed) | – | – | 43.3 ± 4.5 | 3.5*** fold | 0.41 ± 0.06 | 1.4* fold | 3.2 | 1.3 | ATP (nM ATP/well) ([1]; Table 4, 1 nM): 38.9 ± 3.2 nM ATP/well; Fold Induction ATP ([1]; Table 4, 1 nM, vs vehicle): 3.1*** fold; NFAT Luciferace units ([2]; 1 nM): 6.3 ± 2.4 Luciferace units; Fold Induction NFAT ([2]; 1 nM): 3.4* fold
4 | CC[C@H](C)[C@H](NC(=O)[C@@H](NC(=O)[C@H](CC(=O)O)NC(=O)[C@H](CCC(N)=O)NC(=O)[C@H](Cc1c[nH]cn1)NC(=O)[C@@H]1CSSC[C@H](N)C(=O)N[C@@H](CO)C(=O)N[C@H]2CSSC[C@H](NC(=O)[C@H](CCC(=O)O)NC(=O)[C@H](CCCCN)NC(=O)[C@H](CC(=O)O)NC(=O)[C@H]([C@@H](C)O)NC(=O)[C@H](CCSC)NC(=O)[C@H](CC(=O)O)NC(=O)[C@H](CCCCN)NC2=O)C(=O)N[C@@H](CC(C)C)C(=O)N[C@@H](Cc2ccc(O)cc2)C(=O)N[C@@H](Cc2ccccc2)C(=O)N1)C(C)C)C(=O)N[C@@H](Cc1c[nH]c2ccccc12)C(=O)O [Sarafotoxin S6b] (H-CSCKDMTDKECLYFCHQDVIW-OH; disulfide 1-15, 3-11 (inferred); N-terminus and C-terminus assumed) | – | 13.4 ± 7.0 | – | – | – | – | – | – | ATP (nM ATP/well) ([1]; Table 2, 100 nM, 4 days): 43.0 ± 7.8 nM ATP/well; ATP (nM ATP/well) ([1]; Table 4, 100 nM): 43.0 ± 7.8 nM ATP/well; cAMP (pmol/well) ([3]; 100 nM (cAMP concentration)): 0.43 ± 0.22 pmol/well
5 | CC1(C)SSC(C)(C)[C@@H](NC(=O)[C@@H](N)Cc2ccc(O)cc2)C(=O)NCC(=O)N[C@@H](Cc2ccccc2)C(=O)N[C@H]1C(=O)O [[D-Pen2-5]-Enkephalin] | 10.7 ± 0.9 | 10.3 ± 2.1 | 10.7 ± 0.9 | 1.2** fold | 0.06 ± 0.01 | 1.7* fold | 3.3 | 1.3 | Fold Induction ATP ([1]; Table 4, 10 nM, vs vehicle): 1.2* fold; Fold Induction NFAT ([2]; 100 nM): 1.8* fold
6 | CC[C@H](C)[C@H](NC(=O)[C@@H](NC(=O)[C@H](CC(=O)O)NC(=O)[C@H](CCC(N)=O)NC(=O)[C@H](Cc1c[nH]cn1)NC(=O)[C@@H]1CSSC[C@H](N)C(=O)N[C@@H]([C@@H](C)O)C(=O)N[C@H]2CSSC[C@H](NC(=O)[C@H](CCC(=O)O)NC(=O)[C@H](CCC(=O)O)NC(=O)[C@H](CC(=O)O)NC(=O)[C@H]([C@@H](C)O)NC(=O)[C@H](CCSC)NC(=O)[C@H](CC(=O)O)NC(=O)[C@H](CC(N)=O)NC2=O)C(=O)N[C@@H](CC(C)C)C(=O)N[C@@H](CC(N)=O)C(=O)N[C@@H](Cc2ccccc2)C(=O)N1)C(C)C)C(=O)N[C@@H](Cc1c[nH]c2ccccc12)C(=O)O [Sarafotoxin S6c] | – | – | 39.9 ± 6.6 | – | 0.21 ± 0.03 | – | – | – | ATP (nM ATP/well) ([1]; Table 4, 1 nM): 41.6 ± 4.8 nM ATP/well; NFAT Luciferace units ([2]; 1 nM): 8.3 ± 2.0 Luciferace units
7 | CC[C@H](C)[C@H](NC(=O)[C@H](CC(=O)O)NC(=O)[C@H](CC(C)C)NC(=O)[C@H](Cc1cnc[nH]1)NC(=O)[C@@H]1CSSC[C@H](N)C(=O)N[C@@H](CO)C(=O)N[C@H]2CSSC[C@H](NC(=O)[C@H](CCC(=O)O)NC(=O)[C@H](CCCCN)NC(=O)[C@H](CC(=O)O)NC(=O)[C@H](CCSC)NC(=O)[C@H](CC(C)C)NC(=O)[C@H](CO)NC(=O)[C@H](CO)NC2=O)C(=O)N[C@@H](C(C)C)C(=O)N[C@@H](Cc2ccc(O)cc2)C(=O)N[C@@H](Cc2ccccc2)C(=O)N1)C(=O)N[C@H](C(=O)N[C@@H](Cc1c[nH]c2ccccc12)C(=O)O)[C@@H](C)CC [Endothelin-1 (human, porcine)] | – | – | 41.7 ± 7.2 | 2.5* fold | 3.64 ± 1.13 | 2.0* fold | – | – | ATP (nM ATP/well) ([1]; Table 4; 10 nM; Porcine,)): 35.3 ± 3.7 nM ATP/well; Fold Induction ATP ([1]; Table 4; 10 nM; vs vehicle; Porcine,), 0.01 µM): 1.3* fold; NFAT Luciferace units ([2]; 10 nM): 13.3 ± 1.3 Luciferace units; Fold Induction NFAT ([2]; 10 nM): 1.6** fold; % Doublecortin-positive cells ([4]; 10 nM): 5.0%; Fold Induction (Doublecortin-positive cells) ([4]; 10 nM): 2.0 fold
8 | CC[C@H](C)[C@H](NC(=O)[C@H](Cc1ccc(O)cc1)NC(=O)[C@@H](NC(=O)[C@H](CCCNC(=N)N)NC(=O)[C@@H](N)CC(=O)O)C(C)C)C(=O)N[C@@H](Cc1cnc[nH]1)C(=O)N1CCC[C@H]1C(=O)N[C@@H](Cc1ccccc1)C(=O)O [Angiotensin II (human synthetic)] | – | – | – | – | – | – | 3.1 | 1.2 | ATP (nM ATP/well) ([1]; Table 4, concentration not given): 11.7 ± 0.6 nM ATP/well; Fold Induction ATP ([1]; Table 4, concentration not given, vs vehicle): 1.2* fold; NFAT Luciferace units ([2]; concentration not given): 12.0 ± 3.7 Luciferace units; Fold Induction NFAT ([2]; concentration not given): 2.1* fold
9 | CC[C@H](C)[C@H](NC(=O)[C@H](C)NC(=O)[C@H](CC(=O)O)NC(=O)[C@H](C)NC(=O)[C@@H](N)Cc1ccc(O)cc1)C(=O)N[C@@H](Cc1ccccc1)C(=O)N[C@H](C(=O)N[C@@H](CC(N)=O)C(=O)N[C@@H](CO)C(=O)N[C@@H](Cc1ccc(O)cc1)C(=O)N[C@@H](CCCNC(=N)N)C(=O)N[C@@H](CCCCN)C(=O)N[C@H](C(=O)N[C@@H](CC(C)C)C(=O)NCC(=O)N[C@@H](CCC(N)=O)C(=O)N[C@@H](CC(C)C)C(=O)N[C@@H](CO)C(=O)N[C@@H](C)C(=O)N[C@@H](CCCNC(=N)N)C(=O)N[C@@H](CCCCN)C(=O)N[C@@H](CC(C)C)C(=O)N[C@@H](CC(C)C)C(=O)N[C@@H](CCC(N)=O)C(=O)N[C@@H](CC(=O)O)C(=O)N[C@H](C(=O)N[C@@H](CCSC)C(=O)N[C@@H](CO)C(=O)N[C@@H](CCCNC(=N)N)C(=O)N[C@@H](CCC(N)=O)C(=O)N[C@@H](CCC(N)=O)C(=O)NCC(=O)N[C@@H](CCC(=O)O)C(=O)N[C@@H](CO)C(=O)N[C@@H](CC(N)=O)C(=O)N[C@@H](CCC(N)=O)C(=O)N[C@@H](CCC(=O)O)C(=O)N[C@@H](CCCNC(=N)N)C(=O)NCC(=O)N[C@@H](C)C(=O)N[C@@H](CCCNC(=N)N)C(=O)N[C@@H](C)C(=O)N[C@@H](CCCNC(=N)N)C(=O)N[C@@H](CC(C)C)C(N)=O)[C@@H](C)CC)C(C)C)[C@@H](C)O [Growth Hormone Releasing Factor] | 12.6 ± 0.9 | – | – | – | – | – | – | – | NFAT Luciferace units ([2]; 15 nM): 4.5 ± 0.6 Luciferace units
10 | CSCC[C@H](NC(=O)[C@H](CC(C)C)NC(=O)[C@@H]1CCCN1C(=O)[C@H](Cc1ccccc1)NC(=O)[C@H](Cc1ccccc1)NC(=O)[C@@H]1CCC(=O)N1)C(N)=O [Septide] ([pGlu]FFPLM-NH2; C-terminus assumed) | – | 3.7 ± 0.9 | – | – | – | – | – | – | ATP (nM ATP/well) ([1]; Table 4, 100 nM): 25.1 ± 3.1 nM ATP/well

— patent US6969702B2, “Compounds and methods for increasing neurogenesis” (priority 2002, dated 2005)
